Patent publication US20260232767A1, “INTERLEUKIN-23 RECEPTOR ANTAGONIST PEPTIDES FOR USE IN THE TREATMENT OF PSORIASIS” (Janssen Pharmaceutica NV, priority 2023, published 2026)

System: subjects with moderate-to-severe plaque psoriasis
Assay: PASI response, Example 2 long-term extension to Week 52
Format: in vivo, human
Text: Described below is a multicenter, long-term extension (LTE), double-blind, dose-ranging, parallel group interventional study in participants from Example 1 to evaluate the long-term efficacy and safety of the hydrochloride salt of the compound of Formula (I) for the treatment of moderate-to-severe plaque psoriasis. Patients from Example 1 continued to receive the same dose of the compound of Formula (I) for an additional 36-week treatment period with a 4-week safety follow up period after the last administration of the compound of Formula (I). Patients randomized to placebo in Example 1 received the compound of Formula (I) at a dose of 100 mg QD starting at Week 16 of Example 1 (FIG. 21).
The primary efficacy endpoint is the proportion of participants achieving a PASI 75 response at Week 52, defined as at least a […] reduction from baseline PASI of Example 1. For primary analysis, composite strategy (non-responder imputation) was applied to address intercurrent event #1 (Discontinuation of study intervention due to lack of efficacy or due to an AE of worsening of psoriasis) and […] (initiation of a protocol-prohibited medication or therapy that could improve psoriasis); treatment policy strategy (observed data) was applied to intercurrent event #3 (Discontinuation of study intervention due to other reasons). Participants with missing data after application of ICEs are considered as non-responders.
Since there was no control arm (after week 16), in this primary analysis, only the proportion of participants who achieved a PASI75 response and its […] confidence interval at Week 52 were summarized for each intervention group.

[1] = Week 20, Placebo → 100 mg QD, N=35
[2] = Week 24, Placebo → 100 mg QD, N=35
[3] = Week 28, Placebo → 100 mg QD, N=35
[4] = Week 32, Placebo → 100 mg QD, N=35
[5] = Week 40, Placebo → 100 mg QD, N=35
[6] = Week 52, Placebo → 100 mg QD, N=35

## CC(=O)NCCCC[C@@H]1NC(=O)[C@H](Cc2c[nH]c3c(C)cccc23)NC(=O)[C@H]([C@@H](C)O)NC(=O)[C@H](CC(N)=O)NC(=O)[C@@H](NC(C)=O)C(C)(C)SSC(C)(C)[C@@H](C(=O)N[C@@H](Cc2ccc(OCCN)cc2)C(=O)N[C@@H](Cc2ccc3ccccc3c2)C(=O)NC2(C(=O)N[C@@H](CCC(=O)O)C(=O)N[C@@H](CC(N)=O)C(=O)N[C@@H](Cc3cccnc3)C(=O)N(C)CC(N)=O)CCOCC2)NC1=O [IL-23 receptor antagonist peptide, Ac-[Pen]*-N-T-[W(7-Me)]-[Lys(Ac)]-[Pen]*-Phe[4-(2-aminoethoxy)]-[2-Nal]-[THP]-E-N-[3-Pal]-Sarc-NH2 (*[Pen]-[Pen]* formdisulfidebond)]
Week 20, 100 mg BID, N=42
  PASI ≥90% Improvement, subjects (%): (61.9%)
Week 20, 100 mg QD, N=43
  PASI 100% Improvement, subjects (%): (14.0%)
  PASI ≥75% Improvement, subjects (%): (60.5%)
  PASI ≥90% Improvement, subjects (%): (44.2%)
[1]
  PASI 100% Improvement, subjects (%): (2.9%)
  PASI ≥75% Improvement, subjects (%): (40.0%)
  PASI ≥90% Improvement, subjects (%): (14.3%)
Week 24, 25 mg BID, N=41
  PASI 100% Improvement, subjects (%): (19.5%)
  PASI ≥75% Improvement, subjects (%): (61.0%)
  PASI ≥90% Improvement, subjects (%): (29.3%)
Week 24, 25 mg QD, N=43
  PASI 100% Improvement, subjects (%): (16.3%)
  PASI ≥75% Improvement, subjects (%): (46.5%)
  PASI ≥90% Improvement, subjects (%): (32.6%)
Week 24, 50 mg QD, N=43
  PASI 100% Improvement, subjects (%): (27.9%)
  PASI ≥75% Improvement, subjects (%): (60.5%)
  PASI ≥90% Improvement, subjects (%): (53.5%)
Week 24, 100 mg BID, N=42
  PASI 100% Improvement, subjects (%): (35.7%)
  PASI ≥75% Improvement, subjects (%): (81.0%)
  PASI ≥90% Improvement, subjects (%): (69.0%)
Week 24, 100 mg QD, N=43
  PASI 100% Improvement, subjects (%): (20.9%)
  PASI ≥75% Improvement, subjects (%): (69.8%)
  PASI ≥90% Improvement, subjects (%): (55.8%)
[2]
  PASI 100% Improvement, subjects (%): (8.6%)
  PASI ≥75% Improvement, subjects (%): (60.0%)
  PASI ≥90% Improvement, subjects (%): (22.9%)
Week 28, 25 mg BID, N=41
  PASI 100% Improvement, subjects (%): (17.1%)
  PASI ≥75% Improvement, subjects (%): (61.0%)
  PASI ≥90% Improvement, subjects (%): (36.6%)
Week 28, 25 mg QD, N=43
  PASI 100% Improvement, subjects (%): (18.6%)
  PASI ≥75% Improvement, subjects (%): (39.5%)
  PASI ≥90% Improvement, subjects (%): (27.9%)
Week 28, 50 mg QD, N=43
  PASI 100% Improvement, subjects (%): (14.0%)
  PASI ≥75% Improvement, subjects (%): (69.8%)
  PASI ≥90% Improvement, subjects (%): (48.8%)
Week 28, 100 mg BID, N=42
  PASI 100% Improvement, subjects (%): (38.1%)
  PASI ≥75% Improvement, subjects (%): (78.6%)
  PASI ≥90% Improvement, subjects (%): (61.9%)
Week 28, 100 mg QD, N=43
  PASI 100% Improvement, subjects (%): (25.6%)
  PASI ≥75% Improvement, subjects (%): (65.1%)
  PASI ≥90% Improvement, subjects (%): (51.2%)
[3]
  PASI 100% Improvement, subjects (%): (14.3%)
  PASI ≥75% Improvement, subjects (%): (62.9%)
  PASI ≥90% Improvement, subjects (%): (22.9%)
Week 32, 25 mg BID, N=41
  PASI 100% Improvement, subjects (%): (17.1%)
  PASI ≥75% Improvement, subjects (%): (53.7%)
  PASI ≥90% Improvement, subjects (%): (39.0%)
Week 32, 25 mg QD, N=43
  PASI 100% Improvement, subjects (%): (18.6%)
  PASI ≥75% Improvement, subjects (%): (48.8%)
  PASI ≥90% Improvement, subjects (%): (30.2%)
Week 32, 50 mg QD, N=43
  PASI 100% Improvement, subjects (%): (25.6%)
  PASI ≥75% Improvement, subjects (%): (65.1%)
  PASI ≥90% Improvement, subjects (%): (51.2%)
Week 32, 100 mg BID, N=42
  PASI 100% Improvement, subjects (%): (33.3%)
  PASI ≥75% Improvement, subjects (%): (78.6%)
  PASI ≥90% Improvement, subjects (%): (66.7%)
Week 32, 100 mg QD, N=43
  PASI 100% Improvement, subjects (%): (25.6%)
  PASI ≥75% Improvement, subjects (%): (69.8%)
  PASI ≥90% Improvement, subjects (%): (62.8%)
[4]
  PASI 100% Improvement, subjects (%): (20.0%)
  PASI ≥75% Improvement, subjects (%): (65.7%)
  PASI ≥90% Improvement, subjects (%): (40.0%)
Week 40, 25 mg BID, N=41
  PASI 100% Improvement, subjects (%): (14.6%)
  PASI ≥75% Improvement, subjects (%): (53.7%)
  PASI ≥90% Improvement, subjects (%): (31.7%)
Week 40, 25 mg QD, N=43
  PASI 100% Improvement, subjects (%): (11.6%)
  PASI ≥75% Improvement, subjects (%): (48.8%)
  PASI ≥90% Improvement, subjects (%): (32.6%)
Week 40, 50 mg QD, N=43
  PASI 100% Improvement, subjects (%): (20.9%)
  PASI ≥75% Improvement, subjects (%): (67.4%)
  PASI ≥90% Improvement, subjects (%): (46.5%)
Week 40, 100 mg BID, N=42
  PASI 100% Improvement, subjects (%): (35.7%)
  PASI ≥75% Improvement, subjects (%): (78.6%)
  PASI ≥90% Improvement, subjects (%): (64.3%)
Week 40, 100 mg QD, N=43
  PASI 100% Improvement, subjects (%): (25.6%)
  PASI ≥75% Improvement, subjects (%): (69.8%)
  PASI ≥90% Improvement, subjects (%): (55.8%)
[5]
  PASI 100% Improvement, subjects (%): (28.6%)
  PASI ≥75% Improvement, subjects (%): (60.0%)
  PASI ≥90% Improvement, subjects (%): (45.7%)
Week 52, 25 mg BID, N=41
  PASI 100% Improvement, subjects (%): (17.1%)
  PASI ≥75% Improvement, subjects (%): (58.5%)
  PASI ≥90% Improvement, subjects (%): (36.6%)
Week 52, 25 mg QD, N=43
  PASI 100% Improvement, subjects (%): (14.0%)
  PASI ≥75% Improvement, subjects (%): (48.8%)
  PASI ≥90% Improvement, subjects (%): (27.9%)
Week 52, 50 mg QD, N=43
  PASI 100% Improvement, subjects (%): (20.9%)
  PASI ≥75% Improvement, subjects (%): (69.8%)
  PASI ≥90% Improvement, subjects (%): (41.9%)
Week 52, 100 mg BID, N=42
  PASI 100% Improvement, subjects (%): (40.5%)
  PASI ≥75% Improvement, subjects (%): (76.2%)
Week 52, 100 mg QD, N=43
  PASI 100% Improvement, subjects (%): (25.6%)
  PASI ≥75% Improvement, subjects (%): (65.1%)
  PASI ≥90% Improvement, subjects (%): (51.2%)
[6]
  PASI 100% Improvement, subjects (%): (34.3%)
  PASI ≥75% Improvement, subjects (%): (65.7%)
  PASI ≥90% Improvement, subjects (%): (57.1%)
From Week 16 to Week 52
  PASI and IGA response rates: generally maintained
